For data set [1], the target named is T1, human factor Xa (Homo sapiens, UniProt P00742).
T1 construct: enzyme solution (e.g., human factor Xa, 32 nM in 0.03 M Tris, 0.15 M NaCl, 1 mg/mL HAS)
The data set is described as follows: Kass determination, chromogenic substrate hydrolysis, factor Xa. The class given is biochemical. As to conditions: apparent association constant, mean value; set range given with 'or greater'. As to the method:
(§1) The inhibition by a compound of the invention of a serine protease of the human blood coagulation system or of the fibrinolytic system, as well as of trypsin, is determined in vitro for the particular enzyme by measuring its inhibitor binding affinity in an assay in which the enzyme hydrolyzes a particular chromogenic substrate, for example as described in Smith, G. F.; Gifford-Moore, D.; Craft, T. J.; Chirgadze, N.; Ruterbories, K. J.; Lindstrom, T. D.; Satterwhite, J. H. Efegatran: A New Cardiovascular Anticoagulant. New Anticoagulants for the Cardiovascular Patient; Pifarre, R., Ed.; Hanley & Belfus, Inc.: Philadelphia, 1997; pp. 265-300. The inhibitor binding affinity is measured as apparent association constant Kass which is the hypothetical equilibrium constant for the reaction between enzyme and the test inhibitor compound (I).
(§2) [formula] [formula] Conveniently, enzyme inhibition kinetics are performed in a high-volume protocol using automated dilutions of inhibitors (n=3 for each of four to eight inhibitor concentrations) into 96-well polystyrene plates and reaction rates are determined from the rate of hydrolysis of appropriate p-nitroanilide substrates at 405 nm using a Thermomax plate reader from Molecular Devices (San Francisco, Calif.). The same general protocol is followed for all enzymes studied: In each well is placed 50 μL buffer (0.06 M Tris, 0.3 M NaCl, pH 7.4), followed by 25 μL of inhibitor solution (in 100 % methanol) and 25 μL enzyme solution (e.g., human factor Xa, 32 nM in 0.03 M Tris, 0.15 M NaCl, 1 mg/mL HAS); finally, within two minutes, 150 μL aqueous solution of chromogenic substrate (e.g., 0.3 mM BzIle-Glu-Gly-Arg-pNA) is added to start the enzymatic reaction. Final factor Xa concentration is 3.2 nM. The rates of chromogenic substrate hydrolysis reactions provide a linear relationship with the enzymes studied such that free enzyme can be quantitated in reaction mixtures. Data is analyzed directly as rates by the Softmax program to produce [free enzyme] calculations for tight-binding Kass determinations. For apparent Kass determinations, human factor Xa is used to hydrolyze BzIle-Glu-Gly- Arg-pNA (SEQ ID NO: 1); 5.9 nM human thrombin is used to hydrolyze 0.2 mM BzPhe-Val-Arg-pNA; 3.4 nM human plasmin is used with 0.5 mM HD-Val-Leu-Lys-pNA; 1.2 nM human nt-PA is used with 0.8 mM HD-Ile-Pro-Arg-pNA; and 0.4 nM urokinase is used with 0.4 mM pyro-Glu-Gly-Arg-pNA.
(§3) Kass is calculated for a range of concentrations of test compounds which produce hydrolysis inhibition of between 20% and 80% of control and the mean value reported in units of liter per mole. […] For example, the respective Kass values as to factor Xa/thrombin for Examples 41, 60, 106, 115, 1403 and 1414 are 407/16.9, 430/4.2, 3630/308, 3013/40 and 3630/308×10^6 L/mole.

The target in data set [2] is human thrombin (Homo sapiens, UniProt P00734). The data set is described as follows: Kass determination, chromogenic substrate hydrolysis, thrombin. Particulars: apparent association constant, mean value; set range given with 'or greater'. The class given is biochemical. As to the method:
as §1, §2, §3

Structures can show the parent of a compound that is named as a salt.

These results are taken from patent publication US7700628B2, “Aromatic ether derivatives useful as thrombin inhibitors” (Eli Lilly and Company, priority 2004, dated 2010).

T1 sequence (P00742 235-488 limits assumed): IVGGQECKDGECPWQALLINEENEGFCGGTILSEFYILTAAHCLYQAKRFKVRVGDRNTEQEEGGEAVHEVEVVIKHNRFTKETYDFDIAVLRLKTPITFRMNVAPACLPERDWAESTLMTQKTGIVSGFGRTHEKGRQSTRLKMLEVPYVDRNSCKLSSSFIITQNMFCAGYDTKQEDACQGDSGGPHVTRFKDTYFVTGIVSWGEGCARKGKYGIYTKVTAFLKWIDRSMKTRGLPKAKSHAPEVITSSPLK
T1 sequence (P00742 41-179 partner limits assumed): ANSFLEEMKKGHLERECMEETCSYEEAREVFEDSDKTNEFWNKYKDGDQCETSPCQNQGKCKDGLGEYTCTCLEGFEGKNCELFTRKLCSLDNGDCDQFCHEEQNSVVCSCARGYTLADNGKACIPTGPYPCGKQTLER

`NCCCOc1cc(N2CCOCC2)ccc1C(=O)Nc1ccc(F)cc1C(=O)Nc1ccc(Cl)cn1` [Example 115, 2-[2-(3-Aminopropoxy)-4-(morpholin-4-yl)benzoylamino]-N-(5-chloropyridin-2-yl)-5-fluorobenzamide]: the “Kass for factor Xa” value in data set [1] came out at 3.013e+09 L/mol. For the same compound, the “Kass for thrombin (factor IIa)” value in data set [2] is 4e+07 L/mol.

In the case of `CSc1ccc(C(=O)Nc2ccc(Cl)cc2C(=O)Nc2ccc(Cl)cn2)c(OCCCN)c1` [Example 106, 2-[2-(3-Aminopropoxy)-4-(methylthio)benzoylamino]-5-chloro-N-(5-chloropyridin-2-yl)benzamide], the “Kass for factor Xa” value in data set [1] came out at 3.63e+09 L/mol. Also, the “Kass for thrombin (factor IIa)” value in data set [2] is 3.08e+08 L/mol.

On to `CC(C)(C)c1ccc(CNc2ccc(Cl)cc2C(=O)Nc2ccc(Cl)cn2)c(OC2CCNCC2)c1` [Example 56, 2-[4-(tert-Butyl)-2-(piperidin-4-yloxy)benzylamino]-5-chloro-N-(5-chloropyridin-2-yl)benzamide], for which the melting point (commonly the temperature of the solid-liquid transition) is 153.6 to 154.5 °C.

`CC(C)(N)c1ccc(C(=O)Nc2ccccc2C(=O)Nc2ccc(Cl)cn2)c(OC2CCNCC2)c1` [Example 60, 2-[4-(1-Amino-1-methyl)ethyl-2-(piperidin-4-yloxy)benzoylamino]-N-(5-chloropyridin-2-yl)benzamide Bis(trifluoroacetate)]: in data set [1], the “Kass for factor Xa” value was found to be 4.3e+08 L/mol. In addition, the “Kass for thrombin (factor IIa)” value in data set [2] was found to be 4.2e+06 L/mol.

`CC(C)(C)c1ccc(CNc2ccccc2C(=O)Nc2ccc(Cl)cn2)c(OC2CCNCC2)c1` [Example 59, 2-[4-(tert-Butyl)-2-(piperidin-4-yloxy)benzylamino]-N-(5-chloro-pyridin-2-yl)benzamide] showed a melting point of 169 to 170 °C.

On to `NCCOc1cc(N2CCOCC2)ccc1C(=O)Nc1ccc(F)cc1C(=O)Nc1ccc(Cl)cn1` [Example 41, 2-[2-(2-Aminoethoxy)-4-(morpholin-4-yl)benzoylamino]-N-(5-chloro-pyridin-2-yl)-5-fluorobenzamide Trifluoroacetate], for which the “Kass for factor Xa” value in data set [1] turned out to be 4.07e+08 L/mol. In data set [2], the “Kass for thrombin (factor IIa)” value was 1.69e+07 L/mol.
